Measurements reported in patent publication US10172358B2, “Thiopicolinamide compounds with fungicidal activity” (Dow AgroSciences LLC, priority 2016, dated 2019).
Where two headings read alike, the source gives them in different places.

How the values were obtained:
Zymoseptoria tritici = test: Fungicidal activity: leaf blotch of wheat (SEPTTR), disease control on wheat seedlings; type: in vivo, Zymoseptoria tritici on wheat plants (variety Yuma); settings: for pest or weed control at 121.5 g/ha: low volume application, 121.5 g/H
Method: Evaluation of Fungicidal Activity: Leaf Blotch of Wheat (Zymoseptoria Tritici; Bayer Code […]) Technical grades of materials were dissolved in acetone, which were then mixed with nine volumes of water (H2O) containing 110 ppm Triton X-100. The fungicide solutions were applied onto wheat seedlings using an automated booth sprayer to run-off. All sprayed plants were allowed to air dry prior to further handling. All fungicides were evaluated using the aforementioned method for their activity vs. all target diseases, unless stated otherwise. Wheat leaf blotch and brown rust activity were also evaluated using track spray applications, in which case the fungicides were formulated as EC formulations, containing 0.1% Trycol 5941 in the spray solutions. Wheat plants (variety Yuma) were grown from seed in a greenhouse in 50% mineral soil/50% soil-less Metro mix until the first leaf was fully emerged, with 7-10 seedlings per pot. These plants were inoculated with an aqueous spore suspension of Zymoseptoria tritici either prior to or after fungicide treatments. After inoculation the plants were kept in 100% relative humidity (one day in a dark dew chamber followed by two to three days in a lighted dew chamber at 20° C.) to permit spores to germinate and infect the leaf. The plants were then transferred to a greenhouse set at 20° C. for disease to develop. When disease symptoms were fully expressed on the 1st leaves of untreated plants, infection levels were assessed on a scale of 0 to 100 percent disease severity. Percent disease control was calculated using the ratio of disease severity on treated plants relative to untreated plants.

Phakopsora pachyrhizi = test: Fungicidal activity: Asian soybean rust (PHAKPA), disease control on soybean seedlings; type: in vivo
Method: Evaluation of Fungicidal Activity: Asian Soybean Rust (Phakopsora Pachyrhizi; Bayer Code PHAKPA)
Technical grades of materials were dissolved in acetone, which were then mixed with nine volumes of H2O containing 0.011% Tween 20. The fungicide solutions were applied onto soybean seedlings using an automated booth sprayer to run-off. All sprayed plants were allowed to air dry prior to further handling.
Soybean plants (variety Williams 82) were grown in soil-less Metro mix, with one plant per pot. Two weeks old seedlings were used for testing. Plants were inoculated either 3 days prior to or 1 day after fungicide treatments. Plants were incubated for 24 h in a dark dew room at 22° C. and 100% relative humidity then transferred to a growth room at 23° C. for disease to develop. Disease severity was assessed on the sprayed leaves.

Puccinia triticina = test: Fungicidal activity: wheat brown rust (PUCCRT), disease control on wheat seedlings; type: in vivo, Puccinia triticina on wheat plants (variety Yuma); settings: for pest or weed control at 121.5 g/ha: low volume application, 121.5 g/H
Method: Technical grades of materials were dissolved in acetone, which were then mixed with nine volumes of water (H2O) containing 110 ppm Triton X-100. The fungicide solutions were applied onto wheat seedlings using an automated booth sprayer to run-off. All sprayed plants were allowed to air dry prior to further handling. All fungicides were evaluated using the aforementioned method for their activity vs. all target diseases, unless stated otherwise. Wheat leaf blotch and brown rust activity were also evaluated using track spray applications, in which case the fungicides were formulated as EC formulations, containing 0.1% Trycol 5941 in the spray solutions. Evaluation of Fungicidal Activity: Wheat Brown Rust (Puccinia triticina; Synonym: Puccinia recondita f. Sp. Tritici; Bayer Code PUCCRT) Wheat plants (variety Yuma) were grown from seed in a greenhouse in 50% mineral soil/50% soil-less Metro mix until the first leaf was fully emerged, with 7-10 seedlings per pot. These plants were inoculated with an aqueous spore suspension of Puccinia triticina either prior to or after fungicide treatments. After inoculation the plants were kept in a dark dew room at 22° C. with 100% relative humidity overnight to permit spores to germinate and infect the leaf. The plants were then transferred to a greenhouse set at 24° C. for disease to develop. Fungicide formulation, application and disease assessment followed the procedures as described in the Example A. The results of the evalution are shown below in Table 4.

[1] = 24 h, 1 day protectant, read-out: SEPTTR 1DP disease control, LV activity at 121.5 g/H
[2] = 72 h, 3 day curative, read-out: SEPTTR 3DC disease control, LV activity at 121.5 g/H
[3] = 24 h, 1 day protectant, read-out: PHAKPA 1DP disease control at 25 ppm
[4] = 72 h, 3 day curative, read-out: PHAKPA 3DC disease control at 25 ppm
[5] = 24 h, 1 day protectant, read-out: PUCCRT 1DP disease control, LV activity at 121.5 g/H
[6] = 72 h, 3 day curative, read-out: PUCCRT 3DC disease control, LV activity at 121.5 g/H

| SMILES | pest or weed control at 121.5 g/ha (Zymoseptoria tritici; [1]) [%] | pest or weed control at 121.5 g/ha (Zymoseptoria tritici; [2]) [%] | pest or weed control at 25 ppm (Phakopsora pachyrhizi; [3]) [%] | pest or weed control at 25 ppm (Phakopsora pachyrhizi; [4]) [%] | pest or weed control at 121.5 g/ha (Puccinia triticina; [5]) [%] | pest or weed control at 121.5 g/ha (Puccinia triticina; [6]) [%] | pest or weed control at 100 ppm (Zymoseptoria tritici; 24 h, high volume application, 100 ppm, 1 day protectant, read-out: SEPTTR 1DP disease control, HV activity at 100 ppm) [%] | pest or weed control at 100 ppm (Puccinia triticina; 24 h, high volume application, 100 ppm, 1 day protectant, read-out: PUCCRT 1DP disease control, HV activity at 100 ppm) [%] |
| --- | --- | --- | --- | --- | --- | --- | --- | --- |
| COc1ccnc(C(=S)N[C@@H](C)C(=O)O[C@@H](C)[C@H](Oc2ccccc2)c2ccc(F)cc2C)c1OC(C)=O [Compound 74] | > 80 | > 80 | ≤ 80 | ≤ 80 | > 80 | ≤ 80 |  |  |
| CCC[C@@H](Oc1ccc(C)cc1)[C@H](C)OC(=O)[C@H](C)NC(=S)c1nccc(OC)c1OC(C)=O [Compound 62] | ≤ 80 |  | ≤ 80 | ≤ 80 | > 80 | > 80 |  |  |
| COc1ccnc(C(=S)N[C@@H](C)C(=O)O[C@@H](C)[C@H](Oc2ccc(Cl)cc2)C2CCCC2)c1OC(C)=O [Compound 71] | > 80 | ≤ 80 | ≤ 80 |  | > 80 | > 80 |  |  |
| COc1ccnc(C(=S)N[C@@H](C)C(=O)O[C@@H](C)[C@@H](c2ccccc2)c2ccc(F)cc2C)c1OC(C)=O [Compound 72] | > 80 | > 80 | > 80 | > 80 | > 80 | > 80 |  |  |
| COc1ccnc(C(=S)N[C@@H](C)C(=O)O[C@@H](C)[C@@H](c2ccc(F)cc2)c2ccc(F)cc2C)c1OC(C)=O [Compound 64] | > 80 | > 80 | > 80 | > 80 | > 80 | ≤ 80 |  |  |
| COc1cc(F)ccc1[C@@H](c1ccc(F)cc1)[C@H](C)OC(=O)[C@H](C)NC(=S)c1nccc(OC)c1OC(C)=O [Compound 70] | > 80 | > 80 | > 80 | ≤ 80 | > 80 | > 80 |  |  |
| CC[C@H](OC(=O)[C@H](C)NC(=S)c1nccc(OC)c1OC(C)=O)[C@@H](C)Oc1ccccc1 [Compound 66] |  |  | ≤ 80 | ≤ 80 | ≤ 80 | ≤ 80 |  |  |
| COc1ccnc(C(=S)N[C@@H](C)C(=O)O[C@@H](C)C(c2ccc(F)cc2F)c2ccc(F)cc2F)c1OC(C)=O [Compound 63] | > 80 | > 80 | > 80 | ≤ 80 | > 80 | ≤ 80 |  |  |
| COc1ccnc(C(=S)N[C@@H](C)C(=O)O[C@H](CC(C)C)[C@H](C)Oc2ccccc2)c1OC(C)=O [Compound 40] |  |  | ≤ 80 |  |  | ≤ 80 |  |  |
| COc1ccnc(C(=S)N[C@@H](C)C(=O)O[C@H](C)C(c2ccc(F)cc2)c2ccc(F)cc2)c1O [Compound 7] |  |  |  |  |  |  | ≤ 80 | ≤ 80 |
| COc1cc(F)ccc1[C@H](c1ccccc1)[C@H](C)OC(=O)[C@H](C)NC(=S)c1nccc(OC)c1OC(C)=O [Compound 44] | > 80 | > 80 |  |  | > 80 | ≤ 80 |  |  |
